In patent US6849644B2, “Isoquinoline derivatives useful in the treatment of CNS disorders” (SmithKline Beecham p.l.c., priority 2000, dated 2005):
Structures can show the parent of a compound that is named as a salt.

target: T1, human cloned 5-HT6 receptors (Homo sapiens, UniProt P50406); test: 5-HT6 receptor binding affinity (procedures outlined in WO 98/27081)
T1 construct: expressed in transfected cells
Description: Compounds can be tested following the procedures outlined in WO 98/27081.

T1 sequence (P50406 whole entry): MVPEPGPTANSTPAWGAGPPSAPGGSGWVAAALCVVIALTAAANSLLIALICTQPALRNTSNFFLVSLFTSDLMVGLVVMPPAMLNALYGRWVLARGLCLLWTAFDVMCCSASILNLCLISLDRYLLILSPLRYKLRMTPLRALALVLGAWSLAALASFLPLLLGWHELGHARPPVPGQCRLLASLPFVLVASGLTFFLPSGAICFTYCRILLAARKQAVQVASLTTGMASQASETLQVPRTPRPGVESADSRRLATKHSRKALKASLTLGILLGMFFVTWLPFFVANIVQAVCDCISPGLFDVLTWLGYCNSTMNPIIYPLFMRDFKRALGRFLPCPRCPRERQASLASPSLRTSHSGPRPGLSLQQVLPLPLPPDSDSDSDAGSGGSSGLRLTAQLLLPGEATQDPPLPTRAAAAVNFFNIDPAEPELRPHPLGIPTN

Row | Ki [nM] | SMILES
1 | 1.26 to 6.31 | O=S(=O)(c1ccc2c(c1)CNCC2)n1c(-c2ccccc2)cc2cc(F)ccc21 [Example E13, 7-(5-Fluoro-2-phenyl-indole-1-sulfonyl)-1,2,3,4-tetrahydro-isoquinoline]
2 | 1.26 to 6.31 | Cc1ccc2ccn(S(=O)(=O)c3ccc4c(c3)CNCC4)c2c1 [Example E20, 7-(6-Methyl-indole-1-sulfonyl)-1,2,3,4-tetrahydro-isoquinoline]
3 | 1.26 to 6.31 | O=S(=O)(c1ccc2c(c1)CNCC2)n1c2c(c3ccccc31)CCCC2 [Example E9, 9-(1,2,3,4-Tetrahydro-isoquinoline-7-sulfonyl)-2,3,4,9-tetrahydro-1H-carbazole]
4 | 1.26 to 6.31 | O=S(=O)(c1ccc2c(c1)CNCC2)n1ccc2ccc(Cl)cc21 [Example E16, 7-(6-Chloro-indole-1-sulfonyl)-1,2,3,4-tetrahydro-isoquinoline]
5 | 1.26 to 6.31 | O=S(=O)(c1ccc2c(c1)CNCC2)n1ccc2c(Cl)cccc21 [Example E17, 7-(4-Chloro-indole-1-sulfonyl)-1,2,3,4-tetrahydro-isoquinoline]
6 | 1.26 to 6.31 | O=S(=O)(c1ccc2c(c1)CNCC2)n1ccc2ccc(F)cc21 [Example E22, 7-(6-Fluoro-indole-1-sulfonyl)-1,2,3,4-tetrahydro-isoquinoline]
7 | 1.26 to 6.31 | O=S(=O)(c1ccc2c(c1)CNCC2)n1ccc2cc(F)c(F)cc21 [Example E23, 7-(5,6-Difluoro-indole-1-sulfonyl)-1,2,3,4-tetrahydro-isoquinoline]
8 | 1.26 to 6.31 | Cc1cccc2c1ccn2S(=O)(=O)c1ccc2c(c1)CNCC2 [Example E21, 7-(4-Methyl-indole-1-sulfonyl)-1,2,3,4-tetrahydro-isoquinoline]
9 | 1.26 to 6.31 | O=S(=O)(c1ccc2c(c1)CNCC2)n1ccc2ccc(C(F)(F)F)cc21 [Example E24, 7-(6-Trifluoromethyl-indole-1-sulfonyl)-1,2,3,4-tetrahydro-isoquinoline]
10 | 1.26 to 6.31 | O=S(=O)(c1ccc2c(c1)CNCC2)n1c2ccccc2c2ccccc21 [Example E26, 9-(1,2,3,4-tetrahydro-isoquinoline-7-sulfonyl)-9H-carbazole]
11 | 1.26 to 6.31 | O=S(=O)(c1ccc2c(c1)CNCC2)n1cc(-c2ccccc2)c2ccccc21 [Example E35, 7-(3-Phenyl-indole-1-sulfonyl)-1,2,3,4-tetrahydro-isoquinoline Hydrochloride]
12 | 1.26 to 6.31 | COc1ccc2ccn(S(=O)(=O)c3ccc4c(c3)CNCC4)c2c1 [Example E19, 7-(6-Methoxy-indole-1-sulfonyl)-1,2,3,4-tetrahydro-isoquinoline]
13 | 1.26 to 6.31 | Cc1cn(S(=O)(=O)c2ccc3c(c2)CNCC3)c2ccccc12 [Example E10, 7-(3-Methyl-indole-1-sulfonyl)-1,2,3,4-tetrahydro-isoquinoline]
14 | 1.26 to 6.31 | O=S(=O)(c1ccc2c(c1)CNCC2)n1ccc2ccccc21 [Example E1, 7-(Indole-1-sulfonyl)-1,2,3,4-tetrahydro-isoquinoline Hydrochloride]
